ChEMBL document CHEMBL1201862, “PubChem BioAssay data set” (2004)
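How tested: cells in 96-well plates exposed to compound for 48 hours at five concentrations. GI50 is the concentration that inhibits growth by half.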 Active and inactive are the calls of the source. No stated cut-off is given here; in the data, active = GI50 up to about 1.1 µM and inactive = higher.

Key:
Experiment in all cases: NCI anticancer screen, dose series, 48 h
786-0 = system: 786-0
T47D = system: T47D
SR = system: SR
UACC-62 = system: UACC-62
OVCAR-5 = system: OVCAR-5
SN12C = system: SN12C
NCI-H226 = system: NCI-H226
HOP-92 = system: HOP-92
CCRF-CEM = system: CCRF-CEM
M14 = system: M14
SW-620 = system: SW-620
SK-OV-3 = system: SK-OV-3
IGROV-1 = system: IGROV-1
EKVX = system: EKVX
A498 = system: A498
NCI-H460 = system: NCI-H460
SK-MEL-5 = system: SK-MEL-5
ACHN = system: ACHN
Malme-3M = system: Malme-3M
NCI-H23 = system: NCI-H23

| Structure (SMILES) | GI50 (786-0) | GI50 (T47D) | GI50 (SR) | GI50 (UACC-62) | GI50 (OVCAR-5) | GI50 (SN12C) | GI50 (NCI-H226) | GI50 (HOP-92) | GI50 (CCRF-CEM) | GI50 (M14) | GI50 (SW-620) | GI50 (SK-OV-3) | GI50 (IGROV-1) | GI50 (EKVX) | GI50 (A498) | GI50 (NCI-H460) | GI50 (SK-MEL-5) | GI50 (ACHN) | GI50 (Malme-3M) | GI50 (NCI-H23) |
| --- | --- | --- | --- | --- | --- | --- | --- | --- | --- | --- | --- | --- | --- | --- | --- | --- | --- | --- | --- | --- |
| Clc1cc(C(c2cc(Cl)sc2Cl)c2cc(Cl)sc2Cl)c(Cl)s1 | > 100 µM (inactive) | > 100 µM (inactive) | > 100 µM (inactive) | > 100 µM (inactive) | > 100 µM (inactive) | > 100 µM (inactive) | > 100 µM (inactive) | > 100 µM (inactive) | > 100 µM (inactive) | > 100 µM (inactive) | > 100 µM (inactive) | > 100 µM (inactive) | > 100 µM (inactive) | > 100 µM (inactive) | > 100 µM (inactive) | > 100 µM (inactive) | > 100 µM (inactive) | > 100 µM (inactive) | 74.1 µM (inactive) | > 100 µM (inactive) |
| CC[C@@]1(O)C(=O)OCc2c1cc1n(c2=O)Cc2cc3cc4c(cc3nc2-1)OCO4 | < 0.001 µM (active) | 0.0104 µM (active) | < 0.001 µM (active) | < 0.001 µM (active) | 0.0111 µM (active) | < 0.001 µM (active) | 0.00168 µM (active) | 0.0026 µM (active) | < 0.001 µM (active) | < 0.001 µM (active) | 0.0032 µM (active) | 0.002 µM (active) | 0.00948 µM (active) | 0.0881 µM (active) | < 0.0143 µM (active) | < 0.001 µM (active) | 0.00169 µM (active) | < 0.001 µM (active) | 0.00497 µM (active) | 0.00114 µM (active) |
| Cc1nc2c(n1-c1ccc(Br)cc1)C(=O)c1ccccc1C2=O | 5.16 µM (inactive) | 19.3 µM (inactive) | 1.07 µM (active) | 2.82 µM (inactive) | > 100 µM (inactive) | 4.76 µM (inactive) | 51.6 µM (inactive) | 27.2 µM (inactive) | 3.16 µM (inactive) | 17.7 µM (inactive) | 7.74 µM (inactive) | 42.2 µM (inactive) | 21.2 µM (inactive) | > 54.6 µM (inactive) | > 49.8 µM (inactive) | 1.44 µM (inactive) | 12.6 µM (inactive) | 9.06 µM (inactive) | 9.95 µM (inactive) | 34 µM (inactive) |
| C/C(=C\c1ccc2c(c1)OCO2)[N+](=O)[O-] | 1.56 µM (inactive) | 1.64 µM (inactive) | 0.323 µM (active) | 2.01 µM (inactive) | 3.96 µM (inactive) | 3.38 µM (inactive) | 3.84 µM (inactive) | 2.51 µM (inactive) | < 0.01 µM (active) | 3.65 µM (inactive) | 2.59 µM (inactive) |  | 2.34 µM (inactive) | 4.08 µM (inactive) | 7.23 µM (inactive) | 3.26 µM (inactive) | 1.91 µM (inactive) | 2.01 µM (inactive) | 2.84 µM (inactive) | 2.46 µM (inactive) |
| CCOC(=O)c1cc(C)n(CN(CCO)Cn2nc(C(=O)OCC)cc2C)n1 | 22 µM (inactive) | 24.5 µM (inactive) | 28.6 µM (inactive) | 17.8 µM (inactive) | 19.5 µM (inactive) | 27.4 µM (inactive) |  | 24.8 µM (inactive) | 18.8 µM (inactive) | 18.5 µM (inactive) | 28.3 µM (inactive) | > 100 µM (inactive) | 29.4 µM (inactive) | 34.2 µM (inactive) | > 100 µM (inactive) | 66.5 µM (inactive) | 37.2 µM (inactive) | 22.8 µM (inactive) | 27.1 µM (inactive) | 21.1 µM (inactive) |
| Cc1cc(O)c(C(C)C)cc1C1(c2cc(C(C)C)c(O)cc2C)OC(=O)c2ccccc21 | 2.4 µM (inactive) | 1.85 µM (inactive) | 1.36 µM (inactive) | 1.46 µM (inactive) | 2.38 µM (inactive) | 2.02 µM (inactive) | 2.48 µM (inactive) | 1.92 µM (inactive) |  | 1.82 µM (inactive) | 1.76 µM (inactive) | 4.47 µM (inactive) | 2.81 µM (inactive) | 2.99 µM (inactive) | 2.43 µM (inactive) | 1.92 µM (inactive) | 1.6 µM (inactive) | 2.62 µM (inactive) | 2.21 µM (inactive) | 2.12 µM (inactive) |
| C=CCON(C(=O)OC(C)(C)C)C(C)(C)C | > 100 µM (inactive) | > 100 µM (inactive) | > 100 µM (inactive) | > 100 µM (inactive) | > 100 µM (inactive) |  | > 100 µM (inactive) | > 100 µM (inactive) | > 100 µM (inactive) | > 100 µM (inactive) | > 100 µM (inactive) | > 100 µM (inactive) | > 100 µM (inactive) | > 100 µM (inactive) | > 100 µM (inactive) | > 100 µM (inactive) | > 100 µM (inactive) | > 100 µM (inactive) | > 100 µM (inactive) | > 100 µM (inactive) |
| CO/C(=N\N=C\c1ccc(OC)c(OC)c1)c1ccncc1 | > 10 µM (inactive) | > 10 µM (inactive) | > 10 µM (inactive) | > 10 µM (inactive) |  | > 10 µM (inactive) | > 10 µM (inactive) | > 10 µM (inactive) | > 10 µM (inactive) | > 10 µM (inactive) | > 10 µM (inactive) | > 10 µM (inactive) | > 10 µM (inactive) | > 10 µM (inactive) | > 10 µM (inactive) | > 10 µM (inactive) | > 10 µM (inactive) |  | > 10 µM (inactive) | > 10 µM (inactive) |
| CCN(CC)CC1CCCCN1CC(=O)N1c2ccc(Br)cc2C(=O)Nc2cccnc21 (configuration not stated) | > 100 µM (inactive) | > 100 µM (inactive) | 57 µM (inactive) | > 100 µM (inactive) | > 100 µM (inactive) | > 100 µM (inactive) | > 100 µM (inactive) | 80.4 µM (inactive) | > 100 µM (inactive) | > 100 µM (inactive) |  | > 100 µM (inactive) | > 100 µM (inactive) | > 100 µM (inactive) | > 100 µM (inactive) | > 100 µM (inactive) | > 100 µM (inactive) | > 100 µM (inactive) | > 100 µM (inactive) | > 100 µM (inactive) |
| Cc1ccc(O)c(C2=CC3=NNC(=O)C3C(c3cccc(Br)c3)C2)c1 (configuration not stated) | 29.5 µM (inactive) | 20.5 µM (inactive) | 21.2 µM (inactive) | 19.6 µM (inactive) | 21.8 µM (inactive) | 19.9 µM (inactive) |  | 16.6 µM (inactive) | 25.1 µM (inactive) | 36.9 µM (inactive) | 27.7 µM (inactive) | 14.6 µM (inactive) | 23.1 µM (inactive) | 25.9 µM (inactive) | 42.9 µM (inactive) | 22.4 µM (inactive) | 23.1 µM (inactive) | 24 µM (inactive) | 25.9 µM (inactive) | 23.7 µM (inactive) |
| COc1ccccc1CCN1CCN(CCCc2ccccc2)CC1 | 45.6 µM (inactive) | 55.3 µM (inactive) | 32.7 µM (inactive) | > 100 µM (inactive) | > 100 µM (inactive) | 83.9 µM (inactive) | 72.9 µM (inactive) | 0.524 µM (active) | > 100 µM (inactive) | 24.2 µM (inactive) | > 100 µM (inactive) | > 100 µM (inactive) | > 100 µM (inactive) | > 100 µM (inactive) | 70.8 µM (inactive) | 54.3 µM (inactive) | 22.1 µM (inactive) | > 100 µM (inactive) | > 100 µM (inactive) |  |
| O=C(/C=C/c1ccc(O)c(O)c1)OCCCOC(=O)/C=C/c1ccc(O)c(O)c1 | 20.2 µM (inactive) | 35.6 µM (inactive) | 17.2 µM (inactive) | 16.6 µM (inactive) | 27.4 µM (inactive) | 28.1 µM (inactive) |  | 20 µM (inactive) | 2.63 µM (inactive) | 19.2 µM (inactive) | 11.4 µM (inactive) | 27.2 µM (inactive) | 13.3 µM (inactive) | 33.4 µM (inactive) | 52.5 µM (inactive) | 21.8 µM (inactive) | 15.9 µM (inactive) | 16.2 µM (inactive) | 43.3 µM (inactive) | 20.9 µM (inactive) |
| Cc1ccc(C2SCC(=O)N2c2ccc(-c3ccc(-n4c(-c5ccccc5)nc5ccccc5c4=O)cc3)cc2)cc1 (configuration not stated) | 45.7 µM (inactive) | 24.8 µM (inactive) | 36.4 µM (inactive) | > 100 µM (inactive) | > 100 µM (inactive) | 86.5 µM (inactive) |  | 35 µM (inactive) | 34.9 µM (inactive) | 85.7 µM (inactive) | > 100 µM (inactive) | > 100 µM (inactive) | 25.3 µM (inactive) | 53.3 µM (inactive) | > 100 µM (inactive) | 59.6 µM (inactive) | 41.1 µM (inactive) | > 100 µM (inactive) | > 100 µM (inactive) | > 100 µM (inactive) |
| COC1(CC[C@H](C)COC2OC(CO)C(O)C(O)C2O)O[C@H]2C[C@H]3[C@@H]4CC=C5C[C@@H](OC6OC(CO)C(OC7OC(C)C(O)C(O)C7O)C(O)C6OC6OC(C)C(O)C(O)C6O)CC[C@]5(C)[C@H]4CC[C@]3(C)[C@H]2[C@@H]1C (some centres not stated) | 2.42 µM (inactive) | 2.45 µM (inactive) | > 100 µM (inactive) |  | 4.2 µM (inactive) | 7.76 µM (inactive) | 5.73 µM (inactive) | 1.9 µM (inactive) | 11.1 µM (inactive) | 3.12 µM (inactive) | 2.67 µM (inactive) | 2.82 µM (inactive) | 6.73 µM (inactive) | 19.5 µM (inactive) | 23.5 µM (inactive) |  | 4.98 µM (inactive) | 12 µM (inactive) | 3.45 µM (inactive) | 5.53 µM (inactive) |
